We go through 2 compounds from ChEMBL document CHEMBL4414553, “Imidazopyridine-based selective and multifunctional ligands of biological targets associated with psychiatric and neurodegenerative diseases” (Eur J Med Chem, 2019).

Broadly, the inhibition in vivo is the change of the read-out against control, counted positive when it falls. Read a high inhibition in vivo as strong suppression. The IC50 is the midpoint of a concentration-inhibition curve. Read a high IC50 as lower potency.

The test system of assay [1] is Mus musculus. The assay can be described thus: Inhibition of DYRK1A in mouse at 9 mg/kg relative to control. Type of assay: functional.
The target of assay [2] is Dual specificity tyrosine-phosphorylation-regulated kinase 1A (Homo sapiens, UniProt Q13627). The assay can be described thus: Inhibition of DYRK1A (unknown origin) by TR-FRET assay. On the technique in general: Time-resolved FRET reads energy transfer from a long-lived donor to a nearby acceptor.
Assay [3] deals with T1, Orexin/Hypocretin receptor type 1 (Homo sapiens, UniProt O43613).
T1 sequence (O43613 whole entry): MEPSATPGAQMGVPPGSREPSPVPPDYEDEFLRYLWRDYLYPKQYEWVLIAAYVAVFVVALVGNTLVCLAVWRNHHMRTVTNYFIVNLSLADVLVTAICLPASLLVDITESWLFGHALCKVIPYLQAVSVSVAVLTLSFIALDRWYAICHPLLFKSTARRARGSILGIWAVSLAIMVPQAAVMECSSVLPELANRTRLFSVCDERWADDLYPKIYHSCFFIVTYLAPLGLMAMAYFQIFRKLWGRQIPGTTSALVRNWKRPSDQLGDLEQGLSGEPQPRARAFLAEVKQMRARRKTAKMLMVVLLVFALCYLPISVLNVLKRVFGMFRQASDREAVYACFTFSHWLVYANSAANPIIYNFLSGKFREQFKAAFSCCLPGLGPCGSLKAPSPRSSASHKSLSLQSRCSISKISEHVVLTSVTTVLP
In words: Antagonist activity at human OX1R expressed in CHOK1 cells by Syto62 probe based fluorescence assay. Type of assay: cell-based.

The target in assay [4] is T2, Orexin receptor type 2 (Homo sapiens, UniProt O43614).
T2 sequence (O43614 whole entry): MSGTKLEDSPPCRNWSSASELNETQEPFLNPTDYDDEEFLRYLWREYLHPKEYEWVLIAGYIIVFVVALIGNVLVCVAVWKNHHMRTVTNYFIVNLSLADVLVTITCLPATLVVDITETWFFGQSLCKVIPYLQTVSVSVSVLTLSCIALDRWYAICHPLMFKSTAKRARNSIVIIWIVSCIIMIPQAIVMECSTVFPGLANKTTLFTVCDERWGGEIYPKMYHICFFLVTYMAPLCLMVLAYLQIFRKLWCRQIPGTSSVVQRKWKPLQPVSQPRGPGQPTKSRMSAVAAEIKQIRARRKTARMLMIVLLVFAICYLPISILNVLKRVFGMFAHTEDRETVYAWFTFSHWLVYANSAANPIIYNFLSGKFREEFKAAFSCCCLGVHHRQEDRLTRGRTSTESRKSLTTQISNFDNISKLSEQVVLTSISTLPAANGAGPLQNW
In words: Antagonist activity at human OX2R expressed in CHOK1 cells by Syto62 probe based fluorescence assay. It counts as cell-based.

For the compound `Cc1nc2ccc(-c3cc(N)nc(N)c3)nc2n1C[C@@H](C)Oc1ccccc1`, the inhibition in vivo at 9 mg/kg in assay [1] stood at 46%. Also, 8 nM corresponded to half-maximal inhibition in assay [2] (IC50).
`O=C(c1nccc2[nH]cnc12)N1CCC(F)(F)C(Oc2ccc3ccccc3n2)C1` (centres undefined): the IC50 in assay [3] is 89 nM; in assay [4], over 5870 nM.
